Reference: publication PMC9426601 (mBio, 2022)
“And” between values parts separate entries of the source, which are not always exact repeats. Equal entries are not always repeated. Where two headings read alike, the source gives them in different places.

Key:
[1] = target: NA activity of A(H3N2)-WT (Influenza A virus, UniProt P06818); format: biochemical
[2] = target: NA activity of A(H1N1pdm09)-WT (Influenza A virus, UniProt C7FH46); format: biochemical; conditions: read-out: IC50 (nM), neuraminidase inhibitor
A(H1N1pdm09)-WT [3] = test: yield reduction assay (YRA) in MDCK-SIAT cells; format: cell-based, influenza A(H1N1pdm09) virus; conditions: A(H1N1pdm09) 100% WT, mean ± SD
Procedure: (§1) To perform the yield reduction assay, MDCK-SIAT cells were seeded into a 96-well plate as described above. Cell monolayers were washed with PBS and infected with 100 virus particles (calculated based on virus titer determined by TCID50) for 90 min. […] The plates were incubated for 24 h at 35°C, and the supernatant was collected and quantified to determine the infectious viral titer by using a TCID50 assay.

A(H3N2)-WT [4] = test: yield reduction assay (YRA) in MDCK-SIAT cells; format: cell-based, influenza A(H3N2) virus; conditions: A(H3N2) 100% WT, mean ± SD
Procedure: as §1

A(H3N2) 100% WT = test system: A(H3N2) 100% WT; design: species or system ferrets (Mustela putorius furo); conditions: in vivo
A(H1N1pdm09) 100% WT = test system: A(H1N1pdm09) 100% WT; design: species or system ferrets (Mustela putorius furo); AUC (area under the curve of nasal wash viral titer): unit not given beside the values; conditions: in vivo
A(H3N2)-WT [5] = test: microbe, parasite or virus in culture; format: cell-based; conditions: Influenza A virus, H3N2, read-out: Baloxavir EC50 (nM) FRA
A(H1N1pdm09)-WT [6] = test: microbe, parasite or virus in culture; format: cell-based, influenza A(H1N1pdm09) virus; conditions: Influenza A virus, read-out: Baloxavir EC50 (nM) FRA
[7] = read-out: Oseltamivir IC50 (nM) YRA
[8] = Influenza A virus, read-out: Baloxavir EC50 (nM) YRA

CCC(CC)[C@H](NC(C)=O)[C@@H]1[C@H](O)[C@@H](C(=O)O)C[C@H]1N=C(N)N [Peramivir]
IC50 ([1]; read-out: IC50 (nM), neuraminidase inhibitor): 0.19 ± 0.01 nM | IC50 [2]: 0.15 ± 0.03 nM

CCOC(=O)C1=C[C@@H](OC(CC)CC)[C@H](NC(C)=O)[C@@H](N)C1 [Oseltamivir, oseltamivir]
IC50 (A(H1N1pdm09)-WT [3]; [7]): […] | IC50 ([1]; read-out: Oseltamivir IC50 (nM) NIA): 0.22 ± 0.2 nM | IC50 (A(H3N2)-WT [4]; [7]): […] | Duration of viral shedding (A(H3N2) 100% WT): […] | AUC (area under the curve of nasal wash viral titer) (A(H1N1pdm09) 100% WT): 29.8 ± 2.2 | Duration of viral shedding (A(H1N1pdm09) 100% WT): […] | reduction in mean viral titer 1 day following antiviral treatment (A(H1N1pdm09) 100% WT): no reduction

O=C1c2c(O)c(=O)ccn2N([C@@H]2c3ccccc3SCc3c2ccc(F)c3F)[C@@H]2COCCN12 [Baloxavir, baloxavir acid]
EC50 (A(H1N1pdm09)-WT [3]; [8]): 0.3 ± 0.02 nM | EC50 (A(H3N2)-WT [4]; [8]): 0.4 ± 0.1 nM | Duration of viral shedding (A(H3N2) 100% WT): 4.3 days and 4.3 ± 0.9 days | duration of viral shedding shorter than placebo (A(H3N2) 100% WT): 1.7 days | reduction in AUC relative to placebo (A(H3N2) 100% WT): 28% | EC50 (A(H3N2)-WT [5]): 0.6 ± 0.2 nM | Duration of viral shedding (A(H1N1pdm09) 100% WT): 4 ± 0.8 days | reduction in AUC relative to placebo (A(H1N1pdm09) 100% WT): 29% | reduction in mean viral titer 1 day following antiviral treatment (A(H1N1pdm09) 100% WT): 1,000 fold | reduction of duration of viral shedding vs placebo (A(H1N1pdm09) 100% WT): 2.3 days | EC50 (A(H1N1pdm09)-WT [6]): 1.2 ± 0.2 nM
